Measurements taken from paper PMC10535268, “Design, Synthesis, and Evaluation of Novel Indole Hybrid Chalcones and Their Antiproliferative and Antioxidant Activity” (Molecules, 2023).

Experiments:
MDA-MB-231 = assay: MTT antiproliferative assay, MDA-MB-231; format: cell-based, human; details: MDA-MB-231, 72 h incubation, mean ± SD of three independent experiments
[1] = ABTS radical scavenging activity; details: sample 1 mM, 30 min, gallic acid equivalents, mean (±SD), triplicate
Description: (§1) Table 3 Antioxidant activity.

Jurkat = assay: MTT antiproliferative assay, Jurkat; format: cell-based, human; details: 72 h incubation, mean ± SD of three independent experiments
Bj-5ta = assay: MTT cytotoxicity assay, non-cancer Bj-5ta; format: cell-based, human; details: 72 h incubation, mean ± SD of three independent experiments
MCF-10A = assay: MTT cytotoxicity assay, non-cancer MCF-10A; format: cell-based, human; details: 72 h incubation, mean ± SD of three independent experiments
MCF-7 = assay: MTT antiproliferative assay, MCF-7; format: cell-based, human; details: mean ± SD of three independent experiments
Hela = assay: MTT antiproliferative assay, HeLa; format: cell-based, human; details: 72 h incubation, mean ± SD of three independent experiments
Description: Table 2 IC50 (μM) ± SD of tested compounds in different cell lines after 72 h incubation. | column: Cell Line, IC50 (µM) ± SD / Hela

[2] = Ferric reducing antioxidant power (FRAP); details: sample 1 mM, 30 min, gallic acid equivalents, mean (±SD), triplicate
Description: as §1

[3] = DPPH radical scavenging activity; details: sample 1 mM, 30 min, gallic acid equivalents, mean (±SD), triplicate
HCT116 = assay: MTT antiproliferative assay, HCT116; format: cell-based, human; details: mean ± SD of three independent experiments
[4] = Homo sapiens, MCF7, 72 h, MCF-7, 72 h incubation
[5] = Homo sapiens, HCT-116, 72 h, HCT116, 72 h incubation
[6] = Homo sapiens, MCF7, MCF-7, 72 h incubation
[7] = Homo sapiens, HCT-116, HCT116, 72 h incubation

| IC50 (MDA-MB-231; Homo sapiens) | melting point | IC50 (Jurkat; Homo sapiens) | IC50 (MCF-7; [4]) | IC50 (Hela; Homo sapiens, HeLa, 72 h) | IC50 (HCT116; [5]) | Compound | ABTS [1] | IC50 (Bj-5ta; Homo sapiens) | IC50 (MCF-10A; Homo sapiens, MCF-10A, 72 h) | FRAP [2] | DPPH [3] | also measured |
| --- | --- | --- | --- | --- | --- | --- | --- | --- | --- | --- | --- | --- |
| 66 ± 2.5 µM | 218 °C | 33.9 ± 2.5 µM | 42.2 ± 0.7 µM | 39.9 ± 2.6 µM | 36.8 ± 0.5 µM | O=C(/C=C/c1c[nH]c2ccccc12)c1ccc(O)cc1 [14a, (2E)-1-(4-hydroxyphenyl)-3-(1H-indol-3-yl)prop-2-en-1-one] | 194.8 (±21.4) µmol GAE/mmol | 61 ± 0.6 µM | 51.5 ± 1.7 µM | 105.5 (±3.4) µmol GAE/mmol | 12.3 (±2.3) µmol GAE/mmol | – |
| > 100 µM | 206 to 209 °C | 8 ± 1.4 µM | > 100 µM | > 100 µM | 18.5 µM | COn1cc(C(=O)/C=C/c2ccc(O)c(O)c2)c2ccccc21 [18c, (2E)-3-(3,4-dihydroxyphenyl)-1-(1-methoxy-1H-indol-3-yl)prop-2-en-1-one] | 298.1 (±21.0) µmol GAE/mmol | > 100 µM | > 100 µM | 432.0 (±21.4) µmol GAE/mmol | 551.1 (±14.9) µmol GAE/mmol | IC50 (µM) ± SD, Bj-5ta (Bj-5ta): no toxicity; IC50 (µM) ± SD, MCF-10A (MCF-10A): no toxicity; IC50 (HCT116; HCT116, 72 h incubation): 18.2 ± 2.9 µM |
| > 100 µM | 244 °C | > 100 µM | 82.3 ± 1.8 µM | 93 ± 2.6 µM | 49.3 ± 1.3 µM | Cn1cc(/C=C/C(=O)c2ccc(O)cc2)c2ccccc21 [14b, (2E)-1-(4-hydroxyphenyl)-3-(1-methyl-1H-indol-3-yl)prop-2-en-1-one] | 84.6 (±2.7) µmol GAE/mmol | > 100 µM | 54 ± 2.1 µM | 114.3 (±4.2) µmol GAE/mmol | 7.3 (±3.1) µmol GAE/mmol | – |
| 81.3 ± 1.2 µM | 113 to 115 °C | 39.3 ± 1.2 µM | 86 ± 3.5 µM | 98 ± 2.8 µM | 55.3 ± 1.7 µM | COn1cc(/C=C/C(=O)c2ccc(C(F)(F)F)cc2)c2ccccc21 [12c, (2E)-3-(1-methoxy-1H-indol-3-yl)-1-(4-trifluoromethylphenyl) prop-2-en-1-one] | – | > 100 µM | 38.4 ± 3.1 µM | – | – | – |
| – | – | – | – | – | – | N.N.[Cl][Pt][Cl] [Cisplatin, reference compound] | – | – | – | – | – | IC50 (MDA-MB-231): 17.4 ± 0.2 µM; IC50 (Jurkat): 6.3 ± 0.4 µM; IC50 (Bj-5ta): 37.9 ± 1.9 µM; IC50 (MCF-10A): 25.9 ± 2.1 µM; IC50 (MCF-7; MCF-7, 72 h incubation): 24.6 ± 2.1 µM; IC50 (Hela): 6.5 ± 0.5 µM; IC50 (HCT116; HCT116, 72 h incubation): 15.3 ± 1.6 µM |
| – | 155 to 156 °C | – | – | – | – | COc1cc(/C=C/C(=O)c2cn(OC)c3ccccc23)ccc1O [19c, (2E)-3-(4-hydroxy-3-methoxyphenyl)-1-(1-methoxy-1H-indol-3-yl)prop-2-en-1-one] | 456.0 (±24.6) µmol GAE/mmol | – | – | 296.2 (±10.4) µmol GAE/mmol | 207.7 (±8.6) µmol GAE/mmol | – |
| 64.5 ± 4.7 µM | 140 to 143 °C | 37.8 ± 0.9 µM | 38.1 ± 3.3 µM | 52.9 ± 1.6 µM | 39.4 ± 1.5 µM | O=C(/C=C/c1c(OCCO)[nH]c2ccccc12)c1ccccc1F [11k, (2E)-1-(2-fluorophenyl)-3-[2-(2-hydroxyethoxy)-1H-indol-3-yl]prop-2-en-1-one] | – | – | 94.7 ± 2.6 µM | – | – | – |
| 39.6 ± 2.1 µM | 197 to 200 °C | – | 47.9 ± 0.2 µM | 31.4 ± 2 µM | – | O=C(/C=C/c1ccc(O)cc1)c1c[nH]c2ccccc12 [17a, (2E)-3-(4-hydroxyphenyl)-1-(1H-indol-3-yl)prop-2-en-1-one] | 227.6 (±5.4) µmol GAE/mmol | – | 28.6 ± 0.5 µM | 161.6 (±5.7) µmol GAE/mmol | 16.0 (±1.1) µmol GAE/mmol | – |
| > 100 µM | 213 to 215 °C | – | > 100 µM | 39.8 ± 1.6 µM | – | COn1cc(C(=O)/C=C/c2ccc(O)cc2)c2ccccc21 [17c, (2E)-3-(4-hydroxyphenyl)-1-(1-methoxy-1H-indol-3-yl)prop-2-en-1-one] | 209.0 (±6.6) µmol GAE/mmol | – | > 100 µM | 134.1 (±6.7) µmol GAE/mmol | 13.6 (±0.9) µmol GAE/mmol | – |
| 39.3 ± 1.9 µM | 212 to 215 °C | – | 42.3 ± 3.3 µM | – | 29.8 ± 0.7 µM | O=C(/C=C/c1ccc(O)c(O)c1)c1c[nH]c2ccccc12 [18a, (2E)-3-(3,4-dihydroxyphenyl)-1-(1H-indol-3-yl)prop-2-en-1-one] | 401.2 (±39.2) µmol GAE/mmol | – | 11.5 ± 1.4 µM | 480.9 (±28.8) µmol GAE/mmol | 520.1 (±6.9) µmol GAE/mmol | – |
| 92.7 ± 1.8 µM | 179.5 to 181 °C | 25.9 ± 2.4 µM | 44.7 ± 2.6 µM | 39.6 ± 3.5 µM | 40.5 ± 3.1 µM | O=C(/C=C/c1c[nH]c2ccccc12)c1ccccc1O [13a, (2E)-1-(2-hydroxyphenyl)-3-(1H-indol-3-yl)prop-2-en-1-one] | 292.4 (±12.4) µmol GAE/mmol | 81.5 ± 0.2 µM | 55.4 ± 3.6 µM | 125.2 (±9.4) µmol GAE/mmol | 14.2 (±0.4) µmol GAE/mmol | – |
| > 100 µM | 139 to 140 °C | 42 ± 1.8 µM | 53.4 ± 2.5 µM | 73.9 ± 3.4 µM | 54 ± 2.2 µM | COn1cc(/C=C/C(=O)c2ccccc2O)c2ccccc21 [13c, (2E)-1-(2-hydroxyphenyl)-3-(1-methoxy-1H-indol-3-yl)prop-2-en-1-one] | 214.6 (±28.4) µmol GAE/mmol | > 100 µM | > 100 µM | 43.4 (±1.8) µmol GAE/mmol | 30.3 (±15.4) µmol GAE/mmol | – |
| > 100 µM | 182 to 184 °C | > 100 µM | 20.5 ± 5.1 µM | 32.8 ± 0.4 µM | 12.3 ± 0.2 µM | Cn1cc(/C=C/C(=O)c2ccc(C(F)(F)F)cc2)c2ccccc21 [12b, (2E)-3-(1-methyl-1H-indol-3-yl)-1-(4-trifluoromethylphenyl) prop-2-en-1-one] | – | > 100 µM | > 100 µM | – | – | – |
| 82.2 ± 3.1 µM | 182 to 184 °C | 7.3 ± 0.1 µM | 52.7 ± 2.6 µM | 34.6 ± 0.3 µM | 34.5 ± 0.7 µM | COn1cc(/C=C/C(=O)c2ccc(O)cc2)c2ccccc21 [14c, (2E)-1-(4-hydroxyphenyl)-3-(1-methoxy-1H-indol-3-yl)prop-2-en-1-one] | 75.9 (±5.3) µmol GAE/mmol | 76.4 ± 1.7 µM | 59 ± 0.2 µM | 42.0 (±2.0) µmol GAE/mmol | 21.1 (±5.8) µmol GAE/mmol | – |
| 82 ± 3.2 µM | 205 to 207 °C | > 100 µM | 29.7 ± 2.3 µM | 42.8 ± 2.5 µM | 34.7 ± 0.2 µM | Cn1cc(/C=C/C(=O)c2ccccc2O)c2ccccc21 [13b, (2E)-1-(2-hydroxyphenyl)-3-(1-methyl-1H-indol-3-yl)prop-2-en-1-one] | 116.8 (±5.8) µmol GAE/mmol | > 100 µM | > 100 µM | 41.2 (±0.7) µmol GAE/mmol | 7.6 (±3.8) µmol GAE/mmol | – |
| 45.3 ± 0.5 µM | 200 to 203 °C | 34 ± 0.3 µM | 43.1 ± 1.6 µM | 25.5 ± 1.6 µM | 62.7 ± 2.9 µM | COc1cc(/C=C/C(=O)c2c[nH]c3ccccc23)ccc1O [19a, (2E)-3-(4-hydroxy-3-methoxyphenyl)-1-(1H-indol-3-yl)prop-2-en-1-one] | 564.7 (±74.5) µmol GAE/mmol | 66.6 ± 0.1 µM | 24.7 ± 2.8 µM | 307.2 (±11.9) µmol GAE/mmol | 223.5 (±11.2) µmol GAE/mmol | IC50 (MCF-10A): 40.2 ± 1.2 µM; IC50 (Hela): 41.4 ± 2.5 µM; IC50 (HCT116; HCT116, 72 h incubation): 35.3 ± 0.6 µM |

| Compound | IC50 (MDA-MB-231; Homo sapiens) | melting point | IC50 (Jurkat; Homo sapiens) | IC50 (MCF-7; [4]) | IC50 (Hela; Homo sapiens, HeLa, 72 h) | IC50 (HCT116; [5]) | ABTS [1] | IC50 (Bj-5ta; Homo sapiens) | IC50 (MCF-10A; Homo sapiens, MCF-10A, 72 h) | FRAP [2] | DPPH [3] | also measured |
| --- | --- | --- | --- | --- | --- | --- | --- | --- | --- | --- | --- | --- |
| Cn1cc(C(=O)/C=C/c2ccc(O)c(O)c2)c2ccccc21 [18b, (2E)-3-(3,4-dihydroxyphenyl)-1-(1-methyl-1H-indol-3-yl)prop-2-en-1-one] | – | 210 to 214 °C | – | – | – | – | 487.3 (±43.9) µmol GAE/mmol | – | – | 564.8 (±2.2) µmol GAE/mmol | 589.1 (±8.9) µmol GAE/mmol | IC50 (MCF-10A; Homo sapiens): 7.8 ± 0.3 µM; IC50 (MCF-7; [6]): 37.4 ± 2.2 µM; IC50 (Hela; Homo sapiens): 6.7 ± 0.8 µM; IC50 (HCT116; [7]): 7.1 ± 0.7 µM |
| Cn1cc(C(=O)/C=C/c2ccc(O)cc2)c2ccccc21 [17b, (2E)-3-(4-hydroxyphenyl)-1-(1-methyl-1H-indol-3-yl)prop-2-en-1-one] | – | 236 to 239 °C | – | – | – | – | 218.9 (±5.6) µmol GAE/mmol | – | – | 156.2 (±1.1) µmol GAE/mmol | 20.7 (±6.6) µmol GAE/mmol | IC50 (MCF-10A; Homo sapiens): 22.8 ± 0.4 µM; IC50 (MCF-7; [6]): 50.3 ± 0.6 µM; IC50 (HCT116; [7]): > 100 µM |
| COc1cc(/C=C/C(=O)c2cn(C)c3ccccc23)ccc1O [19b, (2E)-3-(4-hydroxy-3-methoxyphenyl)-1-(1-methyl-1H-indol-3-yl)prop-2-en-1-one] | – | 170 to 172 °C | – | – | – | – | 410.7 (±28.9) µmol GAE/mmol | – | – | 262.2 (±14.2) µmol GAE/mmol | 225.6 (±14.7) µmol GAE/mmol | IC50 (MCF-10A; Homo sapiens): 28.9 ± 0.8 µM; IC50 (MCF-7; [6]): 69.8 ± 1.1 µM; IC50 (Hela; Homo sapiens): 34.9 ± 1.3 µM |
